Results on 39 compounds are retold here after patent US7214675B2, “Urea substituted imidazoquinoline ethers” (3M Innovative Properties Company, priority 2000, dated 2007).

Data set [1] concerns tumor necrosis factor (α) induction in human peripheral blood mononuclear cells (PBMC). Kind of data set: Cytokine induction in human cells: tumor necrosis factor (α) secreted by PBMC, ELISA or IGEN assay. Also noted: key to Lowest Effective Concentration (μM) Tumor Necrosis Factor: A “*” indicates that no induction was seen at any of the tested concentrations; generally the highest concentration tested was 10 or 30 μM. Particulars: lowest concentration found to induce tumor necrosis factor, incubated 18 to 24 hours at 37° C. In kind it is cell-based. An excerpt: (§1) An in vitro human blood cell system is used to assess cytokine induction. Activity is based on the measurement of interferon and tumor necrosis factor (α) (IFN and TNF, respectively) secreted into culture media as described by Testerman et. al. In “Cytokine Induction by the Immunomodulators Imiquimod and S-27609”, Journal of Leukocyte Biology, 58, 365–372 (September, 1995).
(§2) Whole blood from healthy human donors is collected by venipuncture into EDTA vacutainer tubes. Peripheral blood mononuclear cells (PBMC) are separated from whole blood by density gradient centrifugation using Histopaque®-1077. Blood is diluted 1:1 with Dulbecco's Phosphate Buffered Saline (DPBS) or Hank's Balanced Salts Solution (HBSS). The PBMC layer is collected and washed twice with DPBS or HBSS and resuspended at 4×10^6 cells/mL in RPMI complete. The PBMC suspension is added to 48 well flat bottom sterile tissue culture plates (Costar, Cambridge, Mass. or Becton Dickinson Labware, Lincoln Park, N.J.) containing an equal volume of RPMI complete media containing test compound.
(§3) The compounds are solubilized in dimethyl sulfoxide (DMSO). The DMSO concentration should not exceed a final concentration of 1% for addition to the culture wells. The compounds are generally tested at concentrations ranging from 30–0.014 μM.
(§4) The solution of test compound is added at 60 μM to the first well containing RPMI complete and serial 3 fold dilutions are made in the wells. The PBMC suspension is then added to the wells in an equal volume, bringing the test compound concentrations to the desired range (30–0.014 μM). The final concentration of PBMC suspension is 2×10^6 cells/mL. The plates are covered with sterile plastic lids, mixed gently and then incubated for 18 to 24 hours at 37° C. in a 5% carbon dioxide atmosphere.
(§5) Following incubation the plates are centrifuged for 10 minutes at 1000 rpm (˜200×g) at 4° C. The cell-free culture supernatant is removed with a sterile polypropylene pipet and transferred to sterile polypropylene tubes. Samples are maintained at −30 to −70° C. until analysis. The samples are analyzed for interferon (α) by ELISA and for tumor necrosis factor (α) by ELISA or IGEN Assay
Tumor necrosis factor (α) (TNF) concentration is determined using ELISA kits available from Biosource International, Camarillo, Calif. Alternately, the TNF concentration can be determined by Origen® M-Series Immunoassay and read on an IGEN M-8 analyzer from IGEN International, Gaithersburg, Md. The immunoassay uses a human TNF capture and detection antibody pair from Biosource International, Camarillo, Calif. Results are expressed in pg/mL.
(§6) The table below lists the lowest concentration found to induce interferon and the lowest concentration found to induce tumor necrosis factor for each compound.

In data set [2] the test system is interferon (α) induction in human peripheral blood mononuclear cells (PBMC). In words: Cytokine induction in human cells: interferon (α) secreted by PBMC, ELISA. The format is cell-based. Also noted: key to Lowest Effective Concentration (μM) Interferon: A “*” indicates that no induction was seen at any of the tested concentrations; generally the highest concentration tested was 10 or 30 μM. Particulars: lowest concentration found to induce interferon, incubated 18 to 24 hours at 37° C.
Text: as §1, §2, §3, §4, §5
Interferon (α) concentration is determined by ELISA using a Human Multi-Species kit from PBL Biomedical Laboratories, New Brunswick, N.J. Results are expressed in pg/mL.
as §6

As to `CCCCc1nc2c(N)nc3ccccc3c2n1CCOCCNC(=O)NC1CCCCC1` [Example 12], the minimal effective concentration is 1 µM in data set [1] and 0.0001 µM in data set [2]. For `CCC(COCCC1CCN(C(=O)N[C@@H]2C[C@H]2c2ccccc2)CC1)n1cnc2c(N)nc3ccccc3c21` (some centres unmarked) [Example 29] the same measures were 1 µM and 0.1 µM. Take `CCc1nc2c(N)nc3ccccc3c2n1CCOCCNC(=O)NC1CCCCC1` [Example 51, N-{2-[2-(4-amino-2-ethyl-1H-imidazo[4,5-c]quinolin-1-yl)ethoxy]ethyl}-N′-cyclohexylurea]: the melting point lay in the range of 198 to 200 °C. In the case of `CCCCNC(=O)NCCOCCn1c(CCCC)nc2c(N)nc3ccccc3c21` [Example 9], the results for the minimal effective concentration in data set [1] and in data set [2] were 1 µM and 0.0001 µM, respectively. `CCC(COCCC1CCN(C(=O)NS(=O)(=O)c2ccc(C)cc2)CC1)n1cnc2c(N)nc3ccccc3c21` (centres unmarked) [Example 33]: the minimal effective concentration in data set [1] amounted to 10 µM; in data set [2], 1 µM. For the compound `CCCCc1nc2c(N)nc3ccccc3c2n1CCOCCNC(=O)Nc1ccccc1` [Example 10], the values for the minimal effective concentration in data set [1] and in data set [2] were 10 µM and 0.0001 µM, respectively.

Regarding `CCC(COCCC1CCN(C(=O)NS(=O)(=O)c2ccc(Cl)cc2)CC1)n1cnc2c(N)nc3ccccc3c21` (centres unmarked) [Example 34], the values for the minimal effective concentration in data set [1] and in data set [2] were 10 µM and 1 µM, respectively. In the case of `CCC(COCCC1CCN(C(=O)Nc2cccc(C(C)=O)c2)CC1)n1cnc2c(N)nc3ccccc3c21` (centres unmarked) [Example 30], the minimal effective concentration in data set [1] and in data set [2] was 1 µM each time. With `CCCCc1nc2c(N)nc3ccccc3c2n1CCOCCNC(=O)Nc1cccc(OC)c1` [Example 14], the values for the minimal effective concentration in data set [1] and in data set [2] were 10 µM and 0.0001 µM, respectively. For `Nc1nc2ccccc2c2c1ncn2CCOCCNC(=O)Nc1ccccc1` [Example 38], the minimal effective concentration in data set [1] and in data set [2] was 10 µM each time. Turning to `CCCCc1nc2c(N)nc3ccccc3c2n1CCOCCNC(=O)N1CCOCC1` [Example 11], the figures for the minimal effective concentration in data set [1] and in data set [2] were 0.1 µM and 0.0001 µM, respectively. For `CCCCc1nc2c(N)nc3ccccc3c2n1CCOCCNC(=O)NC(C)(C)C` [Example 8] the same measures were 10 µM and 0.0001 µM. For `CCC(COCCC1CCN(C(=O)Nc2cccc(OC)c2)CC1)n1cnc2c(N)nc3ccccc3c21` (centres unmarked) [Example 28] the same measures were 1 µM and 0.1 µM. Taken in the same sequence, the figures for `CCCCc1nc2c(N)nc3ccccc3c2n1CCOCCNC(=O)NS(=O)(=O)c1ccccc1` [Example 19] were 10 µM and 0.1 µM. For `CC(C)(C)NC(=O)NCCOCCn1cnc2c(N)nc3ccccc3c21` [Example 37], the minimal effective concentration in data set [1] and in data set [2] was 10 µM in each case. `CCCCc1nc2c(N)nc3ccccc3c2n1CCOCCNC(=O)NS(=O)(=O)c1ccc(Cl)cc1` [Example 21]: the figures for the minimal effective concentration in data set [1] and in data set [2] were 10 µM and 1 µM, respectively. Turning to `CCC(COCCC1CCN(C(=O)N2CCOCC2)CC1)n1cnc2c(N)nc3ccccc3c21` (centres unmarked) [Example 25], the minimal effective concentration in data set [1] was 1 µM; in data set [2] it was 0.1 µM.

For `CCC(COCCC1CCN(C(=O)Nc2cccc(SC)c2)CC1)n1cnc2c(N)nc3ccccc3c21` (centres unmarked) [Example 31], the minimal effective concentration in data set [1] is 10 µM; in data set [2], 1 µM. As for `CCC(COCCC1CCN(C(=O)Nc2cccc(C#N)c2)CC1)n1cnc2c(N)nc3ccccc3c21` (centres unmarked) [Example 27], the minimal effective concentration came out at 1 µM in data set [1] and 0.1 µM in data set [2]. In the case of `CCC(COCCC1CCN(C(=S)Nc2ccccc2)CC1)n1cnc2c(N)nc3ccccc3c21` (centres unmarked) [Example 36], in data set [1], the “Lowest Effective Concentration (μM) Tumor Necrosis Factor” value is reported as “*”. Further, the minimal effective concentration in data set [2] was 0.1 µM. Turning to `CCCCc1nc2c(N)nc3ccccc3c2n1CCOCCNC(=O)Nc1cccc(SC)c1` [Example 17], the minimal effective concentration in data set [1] was 10 µM. For the same compound, the “Lowest Effective Concentration (μM) Interferon” value in data set [2] was “*”. For the compound `CCC(COCCC1CCN(C(=O)NC(C)C)CC1)n1cnc2c(N)nc3ccccc3c21` (centres unmarked) [Example 22], the values for the minimal effective concentration in data set [1] and in data set [2] were 1 µM and 0.1 µM, respectively. Taken in the same sequence, the figures for `N#Cc1cccc(NC(=O)NCCOCCn2cnc3c(N)nc4ccccc4c32)c1` [Example 40] were 10 µM and 10 µM. For `CCC(COCCC1CCN(C(=O)Nc2ccccc2)CC1)n1cnc2c(N)nc3ccccc3c21` (centres unmarked) [Example 24] the same measures were 1 µM and 0.1 µM. Consider `CCCCc1nc2c(N)nc3ccccc3c2n1CCOCCNC(=O)N[C@H]1C[C@@H]1c1ccccc1` [Example 15], for which the minimal effective concentration in data set [1] turned out to be 0.1 µM; in data set [2], 0.0001 µM.

On to `CCCCc1nc2c(N)nc3ccccc3c2n1CCOCCNC(=O)Nc1cccc(C#N)c1` [Example 13], for which the minimal effective concentration in data set [1] came out at 1 µM; in data set [2] it was 0.0001 µM. `Nc1nc2ccccc2c2c1ncn2CCOCCNC(=O)NC1CCCCC1` [Example 39]: the minimal effective concentration in data set [1] and in data set [2] was 10 µM in each case.

Turning to `CCC(COCCC1CCN(C(=S)NC(=O)c2ccco2)CC1)n1cnc2c(N)nc3ccccc3c21` (centres unmarked) [Example 35], the minimal effective concentration in data set [1] and in data set [2] was 1 µM throughout.

With `CCCCNC(=O)N1CCC(CCOCC(CC)n2cnc3c(N)nc4ccccc4c32)CC1` (centres unmarked) [Example 23], the minimal effective concentration in data set [1] and in data set [2] was 1 µM throughout. With `CCC(COCCC1CCN(C(=O)Nc2ccc(OC)cc2OC)CC1)n1cnc2c(N)nc3ccccc3c21` (centres unmarked) [Example 32], the minimal effective concentration turned out to be 1 µM in data set [1] and 0.1 µM in data set [2]. Consider `CCC(COCCC1CCN(C(=O)NC2CCCCC2)CC1)n1cnc2c(N)nc3ccccc3c21` (centres unmarked) [Example 26], for which the minimal effective concentration came out at 1 µM in data set [1] and 0.1 µM in data set [2]. As to `COc1ccc(NC(=O)NCCOCCn2cnc3c(N)nc4ccccc4c32)c(OC)c1` [Example 43], the minimal effective concentration in data set [1] and in data set [2] was 10 µM each time. For the compound `Nc1nc2ccccc2c2c1ncn2CCOCCNC(=O)NS(=O)(=O)c1ccccc1` [Example 44], the “Lowest Effective Concentration (μM) Tumor Necrosis Factor” value in data set [1] is on record as “*”. The “Lowest Effective Concentration (μM) Interferon” value in data set [2] is listed as “*”. Turning to `CCCCc1nc2c(N)nc3ccccc3c2n1CCOCCNC(=O)Nc1ccc(N(C)C)cc1` [Example 16], the minimal effective concentration in data set [1] stood at 10 µM; in data set [2] it was 0.0001 µM. As to `CCCCc1nc2c(N)nc3ccccc3c2n1CCOCCNC(=O)NC(C)C` [Example 7], the minimal effective concentration was 10 µM in data set [1] and 0.0001 µM in data set [2]. As to `CCCCc1nc2c(N)nc3ccccc3c2n1CCOCCNC(=O)Nc1ccc(OC)cc1OC` [Example 18], the “Lowest Effective Concentration (μM) Tumor Necrosis Factor” value in data set [1] is on record as “*”. In addition, the minimal effective concentration in data set [2] was determined as 1 µM.

Turning to `Nc1nc2ccccc2c2c1ncn2CCOCCNC(=O)N[C@@H]1C[C@H]1c1ccccc1` [Example 42], the “Lowest Effective Concentration (μM) Tumor Necrosis Factor” value in data set [1] is listed as “*”. The compound also came in with a minimal effective concentration in data set [2] of 10 µM. In the case of `COc1cccc(NC(=O)NCCOCCn2cnc3c(N)nc4ccccc4c32)c1` [Example 41], the minimal effective concentration in data set [1] and in data set [2] was 10 µM each time. For `CCCCc1nc2c(N)nc3ccccc3c2n1CCOCCNC(=O)NS(=O)(=O)c1ccc(C)cc1` [Example 20], the minimal effective concentration was determined as 10 µM in data set [1] and 0.01 µM in data set [2].
